These are literature values, as cited in patent US6743775B2, “Slow release formulations comprising anionic polysaccharide” (Alpenstock Holdings Limited, priority 1998, dated 2004).

The conditions of the data set: gelatine alone; Schwartz et al., Principles of Surgery 1979.

For the substance gelatine, the haemostatic effect entry is reported as “only displays a haemostatic effect after an addition of thrombin”.
